Biological target: T1, spinach Rubisco (Spinacia oleracea, UniProt P00875)
T1 construct: Spinach and pea Rubisco, and pea Rubisco LSMT were purified according to McCurry; from tissue
Assay: Rubisco carboxylase assay (14CO2 fixation, O2-free, CO2-free buffers), spinach Rubisco
Type: biochemical
Settings: added to the Rubisco complex containing bound CA before the assay; AdoMet 100 μM
Description: Kinetic analyses were performed as described previously for Rubisco Lorimer, G. H., Badger, M. R., and Andrews, T. J. Biochemistry 15, 529-536.1976. Pierce, J. W., McCurry, S. D., Mulligan, R. M., and Tolbert, N. E. Methods Enzymol. 89 Pt D, 47-55.1982. Assays were conducted under O2 free conditions with CO2-free buffers as described below, and contained normalized Rubisco and hCAII activities, unless otherwise indicated. The assays contained, unless otherwise indicated, 100 mM Bicine adjusted to pH 8.2 with a saturated NaOH solution, 20 mM MgCl2, 2 mM dithiothreitol, 0.5 mM RuBP, and NaH^14 CO3 (1.0 mCi/mmol). Reactions were initiated by the addition of activated Rubisco, or conjugate, injected into an 8 mL serum capped vial (first flushed with nitrogen). Activation of Rubisco or conjugate was performed at 2 mg/mL by incubation at 30 C for 15 min in 50 mM Bicine, pH 8.2, containing 20 mM MgCl2 and 15 mM NaH^14CO3. Assay times, enzyme masses, volumes, or specific activities were adjusted to limit substrate consumption to 10% or less. The assays were terminated by the addition by 2N HCl (0.4 volumes), and the liquid evaporated to dryness under a stream of air at 50° C. Radioactivity was determined with a liquid scintillation analyzer (Packard 2000 CA), after addition of 0.5 mL H20 and 4.5 mL of cocktail (Bio-Safe II, RPI). […]

C[S+](CC[C@H](N)C(=O)[O-])C[C@H]1O[C@@H](n2cnc3c(N)ncnc32)[C@H](O)[C@@H]1O (stereo partly shown) [AdoMet, S-adenosylmethionine]
effect on the stimulation of carboxylase activity by bound CA: the effect of bound CA was abolished
